Results taken from patent publication US20220306653A1, “MACROCYCLIC INHIBITORS OF MCL-1” (Janssen Pharmaceutica NV, priority 2019, published 2022).
Where “and” joins values, the source holds several entries; their conditions need not be identical. Equal entries are not always repeated.

Tested on: Molp8 multiple myeloma cell line
Test: Molp8 multiple myeloma cell line survival assay using Annexin V and 7AAD
Assay type: cell-based, human
Details: live cell percent by Annexin V/7AAD flow cytometry, 3 days incubation; each independent run listed individually; read-out: MOLP8 Apoptosis IC50
From the text: Molp8 multiple myeloma cell line survival assay using Annexin V and 7AAD.
The Annexin V/7AAD principle is based on the location of phosphatidylserine in the plasma membrane and the integrity of the membrane barrier. During early apoptosis, phosphatidylserine loses its normal distribution patterns in the inner leaflet of the plasma membrane and appears on the exterior of the plasma membrane. Annexin proteins are calcium dependent phospholipid binding proteins and can bind phosphatidylserine on the outer membrane during cell death. The viability dye 7AAD is excluded from entering cells with intact plasma membranes but accumulates in cells that have lost membrane integrity. Annexin Fitc is excited by the 488 nm laser (max excitation: 490 nm, max emission: 525 nm) as is 7AAD (excitation: 488 nm, emission: 650 nm), which allows this assay to be completed on any multicolor flow cytometer.
The assay conditions were optimized using the following 1× reaction buffer: 5 mM HEPES (4-(2-hydroxyethyl)-1-piperazineethanesulfonic acid), 70 mM NaCl, 1.25 mM CaCl2, pH 7.4.
The Molp 8 cells were multiple myeloma, human, in suspension (*cells were counted 2× per week and culture density maintained between 0.5 and 1.5×10^6 cells per ml).
On Day 1, 5×10^4 live cells per well were plated in a 96-well U-bottom plate, with the cells plated in 100 uL RPMI+10% FBS. An 11-point compound dilution plate was prepared in 3-fold steps (Final concentration range 10 μM-0.1 nM) and added at a concentration of 1 μL per well. The plate was then incubated for 3 days at 37° C. and 5% CO2.
On Day 4, the cells were pelleted and the media discarded. The cells were then resuspended in 50 μL AnnexinV-Fitc (1:40 dilution) and 7AAD (1:100 dilution) in Annexin binding buffer, then incubated for 30 min @ room temperature in the dark. 50 μL binding buffer (100 uL total volume) was then added to the cells. There was no wash step required.
Within 2 hours, PeCy5 (7AAD) and Fitc (Annexin) channels were recorded using BD Canto, collecting a minimum per singlet of 10,000 events.
The activity of a test compound was calculated based on the live cell percentage. • LC=Median of the low control values • =Low control: cells without treatment (no greater than 100% live) • HC=Median of the high control values • =High control: cells treated with 10 uM drug (no less than 0% live)
A best-fit curve was fitted by a minimum sum of squares method to the plot of live cell percent vs. compound concentration. From this an IC50 value (inhibitory concentration causing 50% cytotoxicity) was obtained. An estimate of the slope of the plot in terms of the Hill coefficient was also obtained.

`Cc1c(C(=O)O)n2c3ccc(Cl)c(c13)-c1c(nn(C)c1C)CSCc1cc(n(C)n1)CSc1cc(c3ccccc3c1)OCCC2` (single isomer, unassigned) [Compound 2, 1^5-chloro-1^3,2^1,2^5,6^1-tetramethyl-1′H,2′H,6H-10-oxa-4,8-dithia-1(4,1)-indola-2(4,3),6(3,5)-dipyrazola-9(3,1)-naphthalenacyclotridecaphane-1^2-carboxylic acid] was tested. Which IC50 did it give?
The IC50 was 1300 nM and 7040 nM.

Which IC50 does the source give for `Cc1c(C(=O)O)n2c3ccc(Cl)c(c13)-c1c(nn(C)c1C)CSCc1cc(n(C)n1)CSc1cc(c3ccccc3c1)OCCC2` (single isomer, unassigned) [Compound 1, 1^5-chloro-1^3,2^1,2^5,6^1-tetramethyl-1^1H,2^1H,6^1H-10-oxa-4,8-dithia-1(4,1)-indola-2(4,3),6(3,5)-dipyrazola-9(3,1)-naphthalenacyclotridecaphane-1^2-carboxylic acid] here?
Its IC50 is 54 nM and 106 nM.
